Measured values: patent US9150577B2, “Heterocyclic compounds containing an indole core” (Boehringer Ingelheim International GmbH, priority 2009, dated 2015)

Molecular target: Human RSK2 (Homo sapiens (Human), UniProt P51812)
Assay: Human RSK2 assay (Kinase Glo Plus, residual ATP);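 note: recombinant human RSK2 phosphorylating a substrate peptide, 90 min at 28 °C, leftover ATP read by luminescence, RLU scaled between no-kinase background and uninhibited kinase controls, 4-parameter fit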
Assay type: biochemical

Chain of Human RSK2 (P51812 whole entry): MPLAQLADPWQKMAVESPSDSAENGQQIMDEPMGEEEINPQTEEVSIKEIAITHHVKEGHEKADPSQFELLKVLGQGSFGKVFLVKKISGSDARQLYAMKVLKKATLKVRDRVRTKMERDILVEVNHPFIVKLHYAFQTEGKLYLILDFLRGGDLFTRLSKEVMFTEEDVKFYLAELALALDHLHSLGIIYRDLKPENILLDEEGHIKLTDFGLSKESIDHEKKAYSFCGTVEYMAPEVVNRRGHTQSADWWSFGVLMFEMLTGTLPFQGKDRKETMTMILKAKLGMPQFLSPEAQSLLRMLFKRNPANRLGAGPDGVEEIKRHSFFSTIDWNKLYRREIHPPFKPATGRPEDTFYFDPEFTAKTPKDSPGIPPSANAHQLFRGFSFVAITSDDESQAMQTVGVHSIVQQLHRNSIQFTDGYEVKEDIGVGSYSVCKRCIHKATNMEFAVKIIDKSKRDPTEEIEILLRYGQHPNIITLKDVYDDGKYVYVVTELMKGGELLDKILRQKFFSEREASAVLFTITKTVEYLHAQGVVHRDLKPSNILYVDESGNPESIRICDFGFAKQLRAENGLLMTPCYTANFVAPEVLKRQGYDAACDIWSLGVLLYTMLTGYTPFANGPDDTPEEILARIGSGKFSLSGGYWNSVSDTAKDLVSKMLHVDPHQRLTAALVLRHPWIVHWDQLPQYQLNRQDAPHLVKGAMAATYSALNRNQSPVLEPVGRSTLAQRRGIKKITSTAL

Compound | IC50 [nM]
O=C(Nc1cnn(C2CCOC2)c1)c1ccc2cc3n(c2c1)CCCNC3=O (stereo not drawn) [Example 26, 1-oxo-N-[1-(tetrahydrofuran-3-yl)-1H-pyrazol-4-yl]-2,3,4,5-tetrahydro-1H-[1,4]diazepino[1,2-a]indole-8-carboxamide] | 27
Cn1ccc(NC(=O)c2ccc3cc4n(c3c2)CCCNC4=O)n1 [Example 11, N-(1-methyl-1H-pyrazol-3-yl)-1-oxo-2,3,4,5-tetrahydro-1H-[1,4]diazepino[1,2-a]indole-8-carboxamide] | 540
CC1CNC(=O)c2cc3ccc(C(=O)Nc4cnn(C)c4)cc3n21 (stereo not drawn) [Example 22, 4-methyl-N-(1-methyl-1H-pyrazol-4-yl)-1-oxo-1,2,3,4-tetrahydropyrazino[1,2-a]indole-7-carboxamide] | 5.1
O=C(Nc1nc2ccccc2n1CCc1ccccn1)c1ccc2cc3n(c2c1)CCCNC3=O [Example 89, 1-oxo-N-{1-[2-(pyridin-2-yl)ethyl]-1H-benzimidazol-2-yl}-2,3,4,5-tetrahydro-1H-[1,4]diazepino[1,2-a]indole-8-carboxamide] | 22
O=C(Nc1ccccn1)c1ccc2cc3n(c2c1)CCCNC3=O [Example 154, 1-oxo-N-(pyridin-2-yl)-2,3,4,5-tetrahydro-1H-[1,4]diazepino[1,2-a]indole-8-carboxamide] | 220
Cc1cc(NC(=O)c2ccc3cc4n(c3c2)[C@@H](C)CNC4=O)no1 [Example 132, (4S)-4-methyl-N-(5-methyl-1,2-oxazol-3-yl)-1-oxo-1,2,3,4-tetrahydropyrazino[1,2-a]indole-7-carboxamide] | 495
CC1(C)CNC(=O)c2cc3ccc(C(=O)Nc4cccnc4)cc3n2C1 [Example 9, 4,4-dimethyl-1-oxo-N-(pyridin-3-yl)-2,3,4,5-tetrahydro-1H-[1,4]diazepino[1,2-a]indole-8-carboxamide] | 4600
CN(C)CCCn1c(NC(=O)c2ccc3cc4n(c3c2)CC2(CC2)CNC4=O)nc2ccccc21 [Example 124, N-{1-[3-(dimethylamino)propyl]-1H-benzimidazol-2-yl}-1′-oxo-2′,3′-dihydro-1′H-spiro[cyclopropane-1,4′-[1,4]diazepino[1,2-a]indole]-8′-carboxamide] | 9.25
Cc1cc(NC(=O)c2ccc3cc4n(c3c2)[C@H](C)[C@H](C)NC4=O)no1 [Example 171, (3S,4R)-3,4-dimethyl-N-(5-methyl-1,2-oxazol-3-yl)-1-oxo-1,2,3,4-tetrahydropyrazino[1,2-a]indole-7-carboxamide] | 4
O=C(Nc1cccnc1)c1ccc2cc3n(c2c1)CC1(CC1)CNC3=O [Example 123, 1′-oxo-N-(pyridin-3-yl)-2′,3′-dihydro-1′H-spiro[cyclopropane-1,4′-[1,4]diazepino[1,2-a]indole]-8′-carboxamide] | 430
O=C(Nc1cnn(Cc2ccccc2)c1)c1ccc2cc3n(c2c1)CC1(CCOCC1)CNC3=O [Example 31, N-(1-benzyl-1H-pyrazol-4-yl)-1-oxo-2,2′,3,3′,5′,6′-hexahydro-1H-spiro[1,4-diazepino[1,2-a]indole-4,4′-pyran]-8-carboxamide] | 900
C[C@@H]1CCNC(=O)c2cc3ccc(C(=O)Nc4cnn(Cc5ccccc5)c4)cc3n21 [Example 143, (5R)-N-(1-benzyl-1H-pyrazol-4-yl)-5-methyl-1-oxo-2,3,4,5-tetrahydro-1H-[1,4]diazepino[1,2-a]indole-8-carboxamide] | 0.71
Cc1cc(NC(=O)c2ccc3cc4n(c3c2)CC(C)(C)CNC4=O)no1 [Example 157, 4,4-dimethyl-N-(5-methyl-1,2-oxazol-3-yl)-1-oxo-2,3,4,5-tetrahydro-1H-[1,4]diazepino[1,2-a]indole-8-carboxamide] | 1800
N#Cc1cccc(NC(=O)c2ccc3cc4n(c3c2)CCCNC4=O)c1 [Example 6, N-(3-cyanophenyl)-1-oxo-2,3,4,5-tetrahydro-1H-[1,4]diazepino[1,2-a]indole-8-carboxamide] | 140
O=C(Nc1cnc2ccccc2c1)c1ccc2cc3n(c2c1)CCCNC3=O [Example 190, 1-oxo-N-(quinolin-3-yl)-2,3,4,5-tetrahydro-1H-[1,4]diazepino[1,2-a]indole-8-carboxamide] | 34
CC1CNC(=O)c2cc3ccc(C(=O)Nc4cc5ccccc5[nH]4)cc3n21 (stereo not drawn) [Example 177, N-(1H-indol-2-yl)-4-methyl-1-oxo-1,2,3,4-tetrahydropyrazino[1,2-a]indole-7-carboxamide] | 8
CC(C)(C)c1cc(NC(=O)c2ccc3cc4n(c3c2)CCCNC4=O)sn1 [Example 3, N-(3-tert-butyl-1,2-thiazol-5-yl)-1-oxo-2,3,4,5-tetrahydro-1H-[1,4]diazepino[1,2-a]indole-8-carboxamide] | 240

Next, values leading:

IC50 [nM] | Compound
290 | O=C(Nc1cc(-c2ccccc2)on1)c1ccc2cc3n(c2c1)CCCNC3=O [Example 211, 1-oxo-N-(5-phenyl-1,2-oxazol-3-yl)-2,3,4,5-tetrahydro-1H-[1,4]diazepino[1,2-a]indole-8-carboxamide]
1.3 | CC1CNC(=O)c2cc3ccc(C(=O)Nc4nc5ccccc5n4CCCN(C)C)cc3n21 (stereo not drawn) [Example 100, N-{1-[3-(dimethylamino)propyl]-1H-benzimidazol-2-yl}-4-methyl-1-oxo-1,2,3,4-tetrahydropyrazino[1,2-a]indole-7-carboxamide]
54 | O=C(Nc1nc2ccccc2n1CCN1CCOCC1)c1ccc2cc3n(c2c1)CCCNC3=O [Example 104, N-{1-[2-(morpholin-4-yl)ethyl]-1H-benzimidazol-2-yl}-1-oxo-2,3,4,5-tetrahydro-1H-[1,4]diazepino[1,2-a]indole-8-carboxamide]
14 | CC(C)n1cc(NC(=O)c2ccc3cc4n(c3c2)CCCNC4=O)cn1 [Example 25, 1-oxo-N-[1-(propan-2-yl)-1H-pyrazol-4-yl]-2,3,4,5-tetrahydro-1H-[1,4]diazepino[1,2-a]indole-8-carboxamide]
120 | CN(C)CCn1cc(NC(=O)c2ccc3cc4n(c3c2)CCCNC4=O)cn1 [Example 119, N-{1-[2-(dimethylamino)ethyl]-1H-pyrazol-4-yl}-1-oxo-2,3,4,5-tetrahydro-1H-[1,4]diazepino[1,2-a]indole-8-carboxamide]
41 | O=C(Nc1cccc(-c2cc[nH]n2)c1)c1ccc2cc3n(c2c1)CCCNC3=O [Example 227, 1-oxo-N-[3-(1H-pyrazol-3-yl)phenyl]-2,3,4,5-tetrahydro-1H-[1,4]diazepino[1,2-a]indole-8-carboxamide]
154 | CNC(=O)c1ccccc1NC(=O)c1ccc2cc3n(c2c1)CCCNC3=O [Example 229, N-[2-(methylcarbamoyl)phenyl]-1-oxo-2,3,4,5-tetrahydro-1H-[1,4]diazepino[1,2-a]indole-8-carboxamide]
10 | CC1CCNC(=O)c2cc3ccc(C(=O)Nc4cnn(C)c4)cc3n21 (stereo not drawn) [Example 164, 5-methyl-N-(1-methyl-1H-pyrazol-4-yl)-1-oxo-2,3,4,5-tetrahydro-1H-[1,4]diazepino[1,2-a]indole-8-carboxamide]
43 | O=C(Nc1cn[nH]c1)c1ccc2cc3n(c2c1)CCCNC3=O [Example 15, 1-oxo-N-(1H-pyrazol-4-yl)-2,3,4,5-tetrahydro-1H-[1,4]diazepino[1,2-a]indole-8-carboxamide]
26 | O=C(Nc1cc(C2CC2)on1)c1ccc2cc3n(c2c1)CCCNC3=O [Example 183, N-(5-cyclopropyl-1,2-oxazol-3-yl)-1-oxo-2,3,4,5-tetrahydro-1H-[1,4]diazepino[1,2-a]indole-8-carboxamide]
43.5 | C[C@@H]1CNC(=O)c2cc3ccc(C(=O)Nc4cnn(Cc5ccccc5)c4)cc3n2[C@H]1C [Example 137, (4R,5S)-N-(1-benzyl-1H-pyrazol-4-yl)-trans-4,5-dimethyl-1-oxo-2,3,4,5-tetrahydro-1H-[1,4]diazepino[1,2-a]indole-8-carboxamide]
5 | CCn1c(NC(=O)c2ccc3cc4n(c3c2)[C@@H](C)[C@H](C)NC4=O)nc2ccccc21 (relative stereo) [Example 80, N-(1-ethyl-1H-benzimidazol-2-yl)-trans-3,4-dimethyl-1-oxo-1,2,3,4-tetrahydropyrazino[1,2-a]indole-7-carboxamide]
30 | Cc1cc(NC(=O)c2ccc3cc4n(c3c2)CCCNC4=O)no1 [Example 2, N-(5-methyl-1,2-oxazol-3-yl)-1-oxo-2,3,4,5-tetrahydro-1H-[1,4]diazepino[1,2-a]indole-8-carboxamide]
610 | CC(C)(CO)n1c(NC(=O)c2ccc3cc4n(c3c2)CCCNC4=O)nc2ccccc21 [Example 66, N-[1-(1-hydroxy-2-methylpropan-2-yl)-1H-benzimidazol-2-yl]-1-oxo-2,3,4,5-tetrahydro-1H-[1,4]diazepino[1,2-a]indole-8-carboxamide]
36 | Cc1cc(NC(=O)c2ccc3cc4n(c3c2)C(C)(C)CNC4=O)no1 [Example 126, 4,4-dimethyl-N-(5-methyl-1,2-oxazol-3-yl)-1-oxo-1,2,3,4-tetrahydropyrazino[1,2-a]indole-7-carboxamide]
1.8 | CC(C)n1c(NC(=O)c2ccc3cc4n(c3c2)C(C)CCNC4=O)nc2ccccc21 (stereo not drawn) [Example 165, 5-methyl-1-oxo-N-[1-(propan-2-yl)-1H-benzimidazol-2-yl]-2,3,4,5-tetrahydro-1H-[1,4]diazepino[1,2-a]indole-8-carboxamide]
1100 | Cc1cc(NC(=O)c2ccc3cc4n(c3c2)[C@@H](C)[C@@H](C)NC4=O)no1 [Example 172, (3R,4S)-3,4-dimethyl-N-(5-methyl-1,2-oxazol-3-yl)-1-oxo-1,2,3,4-tetrahydropyrazino[1,2-a]indole-7-carboxamide]
19 | COCCn1cc(NC(=O)c2ccc3cc4n(c3c2)CCCNC4=O)cn1 [Example 38, N-[1-(2-methoxyethyl)-1H-pyrazol-4-yl]-1-oxo-2,3,4,5-tetrahydro-1H-[1,4]diazepino[1,2-a]indole-8-carboxamide]
190 | O=C(Nc1ccc(Cl)cc1)c1ccc2cc3n(c2c1)CCCNC3=O [Example 4, N-(4-chlorophenyl)-1-oxo-2,3,4,5-tetrahydro-1H-[1,4]diazepino[1,2-a]indole-8-carboxamide]
